Drawing on ChEMBL document CHEMBL5614465, “Discovery of the First Clinical Protein Degrader for the Treatment of Autoimmune Indications: Orally Bioavailable and Selective IRAK4 Degrader KT-474” (J Med Chem, 2024), this text covers DC50 for one compound.

The target in the assay is Protein cereblon/Interleukin-1 receptor-associated kinase 4 (Homo sapiens, UniProt Q9NWZ3+Q96SW2). Kind of assay: PROTAC activity at CRBN/IRAK4 in human HEK293T cells assessed as induction of IRAK4 degradation measured after 24 hrs by immunoblotting analysis. The format is cell-based.
Chain of Protein cereblon/Interleukin-1 receptor-associated kinase 4 (Q9NWZ3 whole entry): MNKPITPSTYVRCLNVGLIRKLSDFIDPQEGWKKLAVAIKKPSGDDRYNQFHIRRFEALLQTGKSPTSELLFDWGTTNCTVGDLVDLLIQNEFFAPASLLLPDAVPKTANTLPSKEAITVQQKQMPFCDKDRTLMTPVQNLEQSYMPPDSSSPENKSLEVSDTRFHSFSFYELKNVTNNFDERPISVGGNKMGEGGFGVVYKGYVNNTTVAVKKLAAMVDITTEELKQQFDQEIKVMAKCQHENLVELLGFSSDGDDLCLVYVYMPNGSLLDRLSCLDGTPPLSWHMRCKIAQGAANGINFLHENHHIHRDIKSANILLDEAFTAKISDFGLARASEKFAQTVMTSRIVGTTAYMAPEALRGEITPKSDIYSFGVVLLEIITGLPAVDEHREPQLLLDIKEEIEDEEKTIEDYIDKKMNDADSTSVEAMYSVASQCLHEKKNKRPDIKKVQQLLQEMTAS
Chain of Protein cereblon/Interleukin-1 receptor-associated kinase 4 (Q96SW2 whole entry): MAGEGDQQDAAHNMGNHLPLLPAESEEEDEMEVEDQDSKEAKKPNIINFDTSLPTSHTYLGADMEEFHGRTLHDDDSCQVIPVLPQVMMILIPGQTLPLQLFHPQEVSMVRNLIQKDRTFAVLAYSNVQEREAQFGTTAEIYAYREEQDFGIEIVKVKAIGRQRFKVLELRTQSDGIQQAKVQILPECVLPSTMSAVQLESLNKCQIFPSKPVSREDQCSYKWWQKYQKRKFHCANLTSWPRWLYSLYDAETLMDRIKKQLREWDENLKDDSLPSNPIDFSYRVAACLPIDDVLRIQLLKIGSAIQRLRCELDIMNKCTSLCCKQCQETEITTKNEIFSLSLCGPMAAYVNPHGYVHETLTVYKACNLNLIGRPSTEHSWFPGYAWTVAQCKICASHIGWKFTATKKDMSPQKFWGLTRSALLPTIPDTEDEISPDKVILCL

Structures are written as SMILES.

Regarding `CC(C)Nc1cc(-n2ccc3cc(C#N)cnc32)ncc1C(=O)N[C@H]1CC[C@H](C(=O)NCCOCCNC(=O)COc2cccc3c2C(=O)N(C2CCC(=O)NC2=O)C3=O)CC1` (stereo partly specified), the half-maximal degradation concentration (DC50) is 405 nM.
